# Measurements reported in ChEMBL document CHEMBL1201862, “PubChem BioAssay data set” (2004).
#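 Interpolation was linear, between the two tested concentrations surrounding the appropriate level; five concentrations were tested over 48 hours in 96-well plates. The concentration for 50% growth inhibition is given as GI50.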 Activity calls are given as the source filed them. Cut-off read from the data, not from the text of the source: active = GI50 up to about 1.1 µM and inactive = higher.
# Tests used:
# Assay in all cases: inhibition of tumour cell growth, NCI panel, 48 h
# SF-539 = system: SF-539
# SNB-75 = system: SNB-75
# CCRF-CEM = system: CCRF-CEM
# SF-268 = system: SF-268
# RXF 393 = system: RXF 393
# HCT-15 = system: HCT-15
# T47D = system: T47D
# COLO 205 = system: COLO 205
# OVCAR-8 = system: OVCAR-8
# HT-29 = system: HT-29
# SK-MEL-5 = system: SK-MEL-5
# Hs-578T = system: Hs-578T
# UO-31 = system: UO-31
# ACHN = system: ACHN
# A549 = system: A549
# U-251 = system: U-251
# UACC-62 = system: UACC-62
# MDA-MB-231 = system: MDA-MB-231
# OVCAR-5 = system: OVCAR-5
Compound,GI50 (SF-539),GI50 (SNB-75),GI50 (CCRF-CEM),GI50 (SF-268),GI50 (RXF 393),GI50 (HCT-15),GI50 (T47D),GI50 (COLO 205),GI50 (OVCAR-8),GI50 (HT-29),GI50 (SK-MEL-5),GI50 (Hs-578T),GI50 (UO-31),GI50 (ACHN),GI50 (A549),GI50 (U-251),GI50 (UACC-62),GI50 (MDA-MB-231),GI50 (OVCAR-5)
O=C1Nc2ccccc2/C1=C1/Nc2ccccc2/C1=N\OCCOC1OCC(O)C(O)C1O (stereo not drawn),> 100 µM (inactive),> 100 µM (inactive),> 100 µM (inactive),> 100 µM (inactive),50.6 µM (inactive),> 100 µM,41.1 µM (inactive),31 µM (inactive),> 100 µM (inactive),> 100 µM (inactive),17.9 µM (inactive),> 100 µM (inactive),> 100 µM (inactive),> 100 µM (inactive),> 100 µM (inactive),> 100 µM (inactive),95.1 µM (inactive),> 100 µM (inactive),> 100 µM (inactive)
COc1cc(C2OC[C@@H]3C(=O)OC[C@H]23)cc(O)c1OC (stereo partly drawn),> 100 µM (inactive),> 100 µM (inactive),> 100 µM (inactive),> 100 µM (inactive),> 100 µM (inactive),> 100 µM,> 100 µM (inactive),> 100 µM (inactive),> 100 µM (inactive),> 100 µM (inactive),> 100 µM (inactive),> 100 µM (inactive),> 100 µM (inactive),> 100 µM (inactive),> 100 µM (inactive),> 100 µM (inactive),> 100 µM (inactive),> 100 µM (inactive),> 100 µM (inactive)
O=C1CC2(CCC(O)(c3ccc(Cl)cc3)C(C(=O)c3ccc(Cl)cc3)C2)C(=O)c2ccccc2N1 (stereo not drawn),3.42 µM (inactive),0.146 µM (active),4.61 µM (inactive),3.1 µM (inactive),4.89 µM (inactive),> 42.7 µM,12.4 µM (inactive),5.74 µM (inactive),14.7 µM (inactive),3.89 µM (inactive),11.4 µM (inactive),1.48 µM (inactive),17.6 µM (inactive),3.64 µM (inactive),12.5 µM (inactive),2.6 µM (inactive),14.8 µM (inactive),10.2 µM (inactive),> 71 µM (inactive)
CCCCCC(=O)Nc1[nH]cnc1C(N)=O,> 100 µM (inactive),> 100 µM (inactive),> 100 µM (inactive),> 100 µM (inactive),> 100 µM (inactive),> 100 µM,> 100 µM (inactive),> 100 µM (inactive),> 100 µM (inactive),> 100 µM (inactive),> 100 µM (inactive),> 100 µM (inactive),> 100 µM (inactive),> 100 µM (inactive),> 100 µM (inactive),> 100 µM (inactive),> 100 µM (inactive),> 100 µM (inactive),> 100 µM (inactive)
Cc1c(-c2ccccn2)ccc2ccccc12,> 100 µM (inactive),27.9 µM (inactive),28.2 µM (inactive),54 µM (inactive),29.1 µM (inactive),27.7 µM,39.2 µM (inactive),41.4 µM (inactive),26.4 µM (inactive),41.7 µM (inactive),35.7 µM (inactive),> 100 µM (inactive),32.7 µM (inactive),52.7 µM (inactive),69.5 µM (inactive),93.5 µM (inactive),47.1 µM (inactive),44.6 µM (inactive),> 100 µM (inactive)
CN(C)CCCN1C(=S)N(CCCN(C)C)c2c3cc(O)ccc3nc3c([N+](=O)[O-])ccc1c23,1.29 µM (inactive),3.37 µM (inactive),1.18 µM (inactive),1.53 µM (inactive),3.03 µM (inactive),1.87 µM,1.44 µM (inactive),1.12 µM (inactive),1.87 µM (inactive),0.757 µM (active),3.18 µM (inactive),5.61 µM (inactive),2.87 µM (inactive),0.703 µM (active),0.743 µM (active),2.46 µM (inactive),5.13 µM (inactive),3.71 µM (inactive),11.8 µM (inactive)
N=C(N)N/N=C/c1cc(Cl)cc(Cl)c1O,37.3 µM (inactive),30.2 µM (inactive),43.4 µM (inactive),45.9 µM (inactive),58.5 µM (inactive),26.1 µM,32.2 µM (inactive),34.2 µM (inactive),> 100 µM (inactive),62.1 µM (inactive),37.4 µM (inactive),55.7 µM (inactive),29.7 µM (inactive),56.6 µM (inactive),> 100 µM (inactive),48.5 µM (inactive),41 µM (inactive),62.7 µM (inactive),78.2 µM (inactive)
O=C(O)C1OC1(c1cccc(Cl)c1)c1ccccc1Cl (stereo not drawn),25.9 µM (inactive),19.9 µM (inactive),11.2 µM (inactive),20.6 µM (inactive),27.4 µM (inactive),6.76 µM,20.7 µM (inactive),53.3 µM (inactive),32.1 µM (inactive),25.9 µM (inactive),20 µM (inactive),25.4 µM (inactive),20.8 µM (inactive),31.7 µM (inactive),35.8 µM (inactive),11.1 µM (inactive),14.8 µM (inactive),18.1 µM (inactive),58.7 µM (inactive)
O=Cc1ccc(OC[C@H]2COC(=O)N2)cc1,> 100 µM (inactive),> 100 µM (inactive),> 100 µM (inactive),> 100 µM (inactive),> 100 µM (inactive),> 100 µM,> 100 µM (inactive),72.4 µM (inactive),> 100 µM (inactive),> 100 µM (inactive),> 100 µM (inactive),> 100 µM (inactive),> 100 µM (inactive),> 100 µM (inactive),47.9 µM (inactive),> 100 µM (inactive),> 100 µM (inactive),> 100 µM (inactive),> 100 µM (inactive)
O=C1NCN(c2ccccc2)C12CCN(CCCN1CCN(CCOC(c3ccccc3)c3ccccc3)CC1)CC2,1.25 µM (inactive),2.18 µM (inactive),0.859 µM (active),2.4 µM (inactive),1.5 µM (inactive),1.86 µM,3.02 µM (inactive),1.18 µM (inactive),3.33 µM (inactive),1.11 µM (active),1.28 µM (inactive),3.48 µM (inactive),1.5 µM (inactive),2.5 µM (inactive),4.14 µM (inactive),4.07 µM (inactive),4.27 µM (inactive),3.52 µM (inactive),5.08 µM (inactive)
O=NC1C(Cl)C2CC1C1C(Br)C(Br)CC21 (stereo not drawn),> 100 µM (inactive),> 100 µM (inactive),62.7 µM (inactive),> 100 µM (inactive),> 100 µM (inactive),> 100 µM,> 100 µM (inactive),> 100 µM (inactive),> 100 µM (inactive),> 100 µM (inactive),> 100 µM (inactive),> 100 µM (inactive),> 100 µM (inactive),> 100 µM (inactive),> 100 µM (inactive),> 100 µM (inactive),> 100 µM (inactive),> 100 µM (inactive),> 100 µM (inactive)
CS/C(Nc1ccccc1)=C1\C(=O)N(c2ccccc2)N=C1C,> 100 µM (inactive),> 100 µM (inactive),> 100 µM (inactive),> 100 µM (inactive),> 100 µM (inactive),> 100 µM,> 100 µM (inactive),> 100 µM (inactive),> 100 µM (inactive),> 100 µM (inactive),> 100 µM (inactive),> 100 µM (inactive),> 100 µM (inactive),–,> 100 µM (inactive),> 100 µM (inactive),> 100 µM (inactive),> 100 µM (inactive),> 100 µM (inactive)
COc1ccc2cc(CNCCOCCOCCNCc3ccc4cc(OC)ccc4c3)ccc2c1,1.54 µM (inactive),1.38 µM (inactive),0.341 µM (active),1.42 µM (inactive),1.53 µM (inactive),0.527 µM,1.06 µM (active),0.162 µM (active),1.49 µM (inactive),0.192 µM (active),0.675 µM (active),1.64 µM (inactive),1.32 µM (inactive),1.6 µM (inactive),1.58 µM (inactive),1.31 µM (inactive),1.78 µM (inactive),1 µM (active),1.85 µM (inactive)
O=[N+]([O-])c1cc2c(cc1/C=N/n1c(CO)nc3ccccc31)OCO2,> 100 µM (inactive),> 100 µM (inactive),> 100 µM (inactive),> 100 µM (inactive),> 100 µM (inactive),> 100 µM,> 100 µM (inactive),> 100 µM (inactive),> 100 µM (inactive),> 100 µM (inactive),> 100 µM (inactive),> 100 µM (inactive),> 100 µM (inactive),> 100 µM (inactive),> 100 µM (inactive),> 100 µM (inactive),> 100 µM (inactive),> 100 µM (inactive),> 100 µM (inactive)
CC1(C)C2CCC3=C(CCC4(C)C5C[C@](C)(C(=O)O)CC[C@]5(C)CC[C@]34C)[C@@]2(C)CC[C@@H]1O (stereo partly drawn),37.3 µM (inactive),19 µM (inactive),14.9 µM (inactive),31.2 µM (inactive),21.6 µM (inactive),16.5 µM,18 µM (inactive),38.3 µM (inactive),–,17.5 µM (inactive),34.3 µM (inactive),31 µM (inactive),29.4 µM (inactive),12.1 µM (inactive),13.1 µM (inactive),13.1 µM (inactive),19.3 µM (inactive),17.9 µM (inactive),49.8 µM (inactive)
